Measurements from ChEMBL document CHEMBL1240330, “Splicing factor SF3b as a target of the antitumor natural product pladienolide” (Nat Chem Biol, 2007).

What was measured:
[1] = target: T1, Splicing factor 3B subunit 3 (Homo sapiens, UniProt Q15393); assay: (§1) Inhibition of SAP130 in VEGF-stimulated human U251 cells by PLAP reporter gene assay; assay type: cell-based, U-251
T1 sequence (Q15393 whole entry): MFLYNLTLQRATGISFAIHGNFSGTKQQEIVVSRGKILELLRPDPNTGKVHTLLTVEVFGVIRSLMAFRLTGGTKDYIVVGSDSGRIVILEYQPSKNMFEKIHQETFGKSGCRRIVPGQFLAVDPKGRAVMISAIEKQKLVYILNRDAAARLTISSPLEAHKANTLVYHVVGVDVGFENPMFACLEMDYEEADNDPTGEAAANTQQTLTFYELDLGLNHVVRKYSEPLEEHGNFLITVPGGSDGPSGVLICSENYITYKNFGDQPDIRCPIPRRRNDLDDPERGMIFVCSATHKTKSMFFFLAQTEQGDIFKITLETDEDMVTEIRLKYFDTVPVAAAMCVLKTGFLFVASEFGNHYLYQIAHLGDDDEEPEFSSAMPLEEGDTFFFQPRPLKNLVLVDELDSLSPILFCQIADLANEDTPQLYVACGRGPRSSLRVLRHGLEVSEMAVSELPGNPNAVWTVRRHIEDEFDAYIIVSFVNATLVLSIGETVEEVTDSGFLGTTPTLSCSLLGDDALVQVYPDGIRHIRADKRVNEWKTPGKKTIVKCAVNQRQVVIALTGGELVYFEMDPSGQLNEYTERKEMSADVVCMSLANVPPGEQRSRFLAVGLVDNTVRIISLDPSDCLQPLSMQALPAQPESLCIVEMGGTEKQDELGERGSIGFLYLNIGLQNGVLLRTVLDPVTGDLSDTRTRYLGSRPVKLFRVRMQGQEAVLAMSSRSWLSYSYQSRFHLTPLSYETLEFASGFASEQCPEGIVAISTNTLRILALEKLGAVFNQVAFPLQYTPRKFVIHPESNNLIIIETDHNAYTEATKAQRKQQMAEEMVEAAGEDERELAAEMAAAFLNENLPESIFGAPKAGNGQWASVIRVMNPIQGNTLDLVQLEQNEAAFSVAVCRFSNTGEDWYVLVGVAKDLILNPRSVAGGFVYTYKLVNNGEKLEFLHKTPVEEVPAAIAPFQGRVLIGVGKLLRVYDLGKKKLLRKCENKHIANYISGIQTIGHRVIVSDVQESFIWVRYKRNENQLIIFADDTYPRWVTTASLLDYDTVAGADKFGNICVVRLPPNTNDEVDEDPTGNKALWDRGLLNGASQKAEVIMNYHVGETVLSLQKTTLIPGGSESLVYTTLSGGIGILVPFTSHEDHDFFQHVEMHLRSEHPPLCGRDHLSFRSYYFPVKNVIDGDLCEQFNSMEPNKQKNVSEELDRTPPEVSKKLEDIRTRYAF

[2] = target: Splicing factor 3B subunit 1 / PHD finger-like domain-containing protein 5A (Homo sapiens, UniProt O75533+Q7RTV0); assay: as §1; assay type: cell-based, U-251; conditions: u-251
[3] = target: T2, Splicing factor 3B subunit 3 (Homo sapiens) (UniProt Q15393); assay: Displacement of [3H]probe from SAP130 in human WiDr cell immunoprecipitate sample assessed as radioactive intensity at 10 uM after 1 hr by scintillation counting
T2 sequence (whole entry): T1 sequence (Q15393 whole entry)

Splicing factor 3B subunit 1 / PHD finger-like domain-containing protein 5A, sequence (O75533 whole entry, the tested form may be a part): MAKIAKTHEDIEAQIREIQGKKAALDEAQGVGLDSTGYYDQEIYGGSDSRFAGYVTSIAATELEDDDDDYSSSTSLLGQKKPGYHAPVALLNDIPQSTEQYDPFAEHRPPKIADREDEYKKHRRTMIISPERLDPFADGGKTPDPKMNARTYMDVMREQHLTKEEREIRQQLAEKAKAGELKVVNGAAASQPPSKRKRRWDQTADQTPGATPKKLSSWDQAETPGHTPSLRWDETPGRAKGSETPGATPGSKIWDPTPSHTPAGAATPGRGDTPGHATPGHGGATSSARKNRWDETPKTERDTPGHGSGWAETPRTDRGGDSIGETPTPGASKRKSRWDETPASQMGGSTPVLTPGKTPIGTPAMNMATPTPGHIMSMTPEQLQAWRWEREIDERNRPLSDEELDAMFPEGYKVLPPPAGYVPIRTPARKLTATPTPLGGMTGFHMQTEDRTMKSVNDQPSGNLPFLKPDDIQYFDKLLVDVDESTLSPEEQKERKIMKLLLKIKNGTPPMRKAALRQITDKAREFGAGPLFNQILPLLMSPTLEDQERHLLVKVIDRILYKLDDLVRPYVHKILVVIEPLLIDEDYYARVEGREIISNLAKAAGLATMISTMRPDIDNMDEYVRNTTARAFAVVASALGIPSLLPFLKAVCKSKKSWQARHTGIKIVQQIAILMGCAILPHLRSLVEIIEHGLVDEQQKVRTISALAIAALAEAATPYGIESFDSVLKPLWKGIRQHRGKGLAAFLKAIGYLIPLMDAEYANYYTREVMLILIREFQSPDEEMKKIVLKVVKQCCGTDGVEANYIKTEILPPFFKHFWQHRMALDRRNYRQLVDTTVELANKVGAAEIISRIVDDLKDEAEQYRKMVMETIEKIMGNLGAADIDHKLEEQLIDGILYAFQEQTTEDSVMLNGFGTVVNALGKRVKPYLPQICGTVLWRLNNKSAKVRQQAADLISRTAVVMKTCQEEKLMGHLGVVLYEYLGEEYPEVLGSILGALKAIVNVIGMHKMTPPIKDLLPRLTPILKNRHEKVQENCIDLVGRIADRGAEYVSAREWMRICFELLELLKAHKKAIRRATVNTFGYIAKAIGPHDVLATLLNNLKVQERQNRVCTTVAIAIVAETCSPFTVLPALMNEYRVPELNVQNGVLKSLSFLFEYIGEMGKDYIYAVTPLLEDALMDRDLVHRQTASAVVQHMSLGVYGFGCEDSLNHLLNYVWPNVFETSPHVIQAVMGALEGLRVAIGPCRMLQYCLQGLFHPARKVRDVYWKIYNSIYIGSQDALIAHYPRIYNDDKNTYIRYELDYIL
Splicing factor 3B subunit 1 / PHD finger-like domain-containing protein 5A, sequence (Q7RTV0 2-110 limits assumed): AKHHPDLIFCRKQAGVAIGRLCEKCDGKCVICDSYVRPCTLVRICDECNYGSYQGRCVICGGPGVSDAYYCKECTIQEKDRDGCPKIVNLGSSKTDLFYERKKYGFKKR

IC50 [1] [nM]	IC50 [2] [nM]	Activity [3] [%]	Compound
611	–	–	CC(/C=C/C(=O)NO)=C\[C@@H](C)C(=O)c1ccc(N(C)C)cc1 [TRICHOSTATIN]
–	13.8	–	C=CC[C@@H]1/C=C(\C)C[C@H](C)C[C@H](OC)[C@H]2O[C@@](O)(C(=O)C(=O)N3CCCC[C@H]3C(=O)O[C@H](/C(C)=C/[C@@H]3CC[C@@H](O)[C@H](OC)C3)[C@H](C)[C@@H](O)CC1=O)[C@H](C)C[C@@H]2OC [TACROLIMUS ANHYDROUS]
–	3480	< 50	CC(=O)N[C@@H](CSC(=O)[C@]1([C@@H](O)C(C)C)NC(=O)[C@H](C)[C@@H]1O)C(=O)O [LACTACYSTIN]
